By melting point is commonly meant the temperature, or range, at which the solid turns liquid.

Molecules are shown by their SMILES.

The results in this text go back to a melting point compilation (Tetko et al.; mined from patent text by program, amines drawn as free bases though some values may be those of a salt).

Take `Cc1cc([N+](=O)[O-])cc(C)c1Cl`: the melting point was in the range of 101 to 105 °C.
For the compound `CC(=O)N[C@H]1CC[C@H](c2ccc([N+](=O)[O-])cc2)CC1`, the melting point fell in the range of 221 to 224 °C.
The same measure for `O=S(=O)(c1ccccc1)c1c(-c2ccc(Cl)cc2)[nH]c(Br)c1Br`: more than 200 °C; for `COC(=O)Cc1cccc(CCC(CO)n2cnc(C(N)=O)c2)c1` (configuration not stated): 138 to 141 °C; for `CCCCCNc1cccc(C(=O)O)c1C(=O)O`: 236 to 238 °C.
`NC(=O)NCc1ccc(CNC(=O)[C@@H](CCCNC(N)=N[N+](=O)[O-])NC(=O)Nc2cccc3ccccc23)cc1` yielded a melting point of 210 °C.
The same measure for `O=C(CC1(c2cccc(C(F)(F)F)c2F)CC1)C(=O)Nc1ccc2c(c1)COC2=O`: 165 to 166 °C; for `N#Cc1ccc(NC(=O)c2cccc(OCc3ccc(F)cc3)c2)nc1`: 170 to 171 °C.
Compound `CC(C)(C(=O)C(Oc1ccc(Cl)cc1Cl)n1ccnc1)C(Cl)Cl` (configuration not stated) showed a melting point of 125 to 126 °C.
The same measure for `CCc1ccc2c(=O)c3ccccc3ccc2c1`: 62 to 64 °C.
The same measure for `CC(=O)CCc1ccc(C(=O)c2ccc(Cl)cc2)cc1`: 91 to 92 °C; for `CNC(=NS(=O)(=O)c1ccc(C)cc1)Nc1cc(C(C)c2ccc(-c3ccccc3)c(F)c2)on1` (configuration not stated): 125 to 127 °C.
The same measure for `N#CCc1cccnc1C#N`: 48 to 51 °C.
In turn, `CCCCCc1ccc(C(=O)CCCC(=O)O)cc1` registered a melting point of 104 to 106 °C.
For `COCc1nc2c(N)nc3ccccc3c2s1`, the melting point was 183 to 185 °C.
Compound `CSc1ccc(/C=C2\C=C(CCN(O)C(N)=O)c3ccccc32)cc1` gave a melting point of 175 to 176 °C.
In turn, `CCCCOC(=O)COc1ccc(C(=O)Nc2cc(F)ccc2Sc2ccccc2-c2nnn[nH]2)cc1` gave a melting point of 177 to 179 °C.
Then `CNC(=O)c1c(NC(=O)c2cc(C(F)(F)F)nn2-c2ncccc2Cl)ccc2cccnc12`, with 219 to 220 °C; and `Fc1ccccc1C1=CCc2nnc(Br)n2-c2ccc(Cl)cc21`, with 222 °C; and `CCCCNc1c([N+](=O)[O-])cc(C)cc1[N+](=O)[O-]`, with 52 °C.
Then `Cc1cccnc1-c1ccc2ccnc(N)c2n1`, with 170 to 171 °C; and `CS(=O)(=O)c1ccc(-c2cnn(-c3cccs3)c(=O)c2-c2ccc(F)cc2)cc1`, with 215 to 217 °C.
Then `O=Cc1csc(NCc2ccccc2)n1`, with 162 to 165 °C; and `O=c1c2ccccc2ccn2c(SC(F)(F)F)ccc12`, with 137 to 138 °C.
`Cc1ccc(S(=O)(=O)ON=C2CC(c3ccccc3)Oc3ccccc32)cc1` (configuration not stated) had a melting point of 141 to 143 °C.
Consider `Cc1ccccc1-c1c(NC(=O)Nc2ccc(F)cc2F)cnc2cc3c(cc12)CCC3`, for which the melting point was 252 to 254 °C.
Then `NC(=O)c1ncn2c(-c3cccc(Cl)c3)ccnc12`, with 252 to 254 °C; and `O=C1N(CC2CCCO2)c2c(F)cccc2C12COc1cc3c(cc12)CCO3` (configuration not stated), with 169 to 170 °C; and `CCOc1c(OC)cc(N)cc1OC`, with 88 to 89 °C.
Then `O=c1[nH]c2ccc(Cl)cc2n2ccnc12`, with more than 300 °C.
Take `COC(=O)C(NC(CO)c1ccccc1)C1CC2CCC(C1)N2` (configuration not stated): the melting point was 124 °C.
Then `O=C(CCCC(=O)C(F)(F)F)c1ccc(-c2cccc3ccccc23)cc1`, with 79.7 to 82.5 °C; and `CC(=NOCCOc1ccc(CC2SC(=O)NC2=O)cc1)c1ccc(O)cc1` (configuration not stated), with 157 to 159 °C.
The same measure for `O=C(OC(=O)c1cc2cc(O)ccc2s1)c1ccccc1`: 235 to 236 °C; for `CCOC(=O)C1=C(C)NC(N=CN(C)C)=C(C(=O)OCC)C1c1cccc(Cl)c1` (configuration not stated): 150 °C.
The same measure for `COc1ccn2cc(-c3ccc(OC)c(OC)c3)nc2c1`: 142 °C; for `CCOC(=O)COc1ccc(C(=O)Nc2ccccc2S(=O)(=O)c2ccccc2-c2nnn[nH]2)cc1`: 162 to 163 °C.
Take `CCOC(=O)N1CCC2C(O)CCCC21` (configuration not stated): the melting point was in the range of 153 to 155 °C.
Compound `CN(C)CCCNC(=O)c1ccc(-c2nnc(CSCCCCOc3ccccc3)o2)cc1` registered a melting point of 87 to 93 °C.
Then `CCCC1=NN(c2ccncc2)C(=O)C1=CNc1ccccc1CC`, with 159 °C; and `O=C(O)COc1c(Br)cc(-c2ccc(-c3c(Cc4ccccc4)sc4ccccc34)cc2)cc1Br`, with 183 to 185 °C.
`Cn1ncc(C(=O)N2CCOCC2)c1C(=O)Nc1ccc2nc(-c3cccnc3)nn2c1`: the melting point is 229 °C.
The same measure for `Cc1ncccc1CC(=NC#N)NC1CCCc2ccccc21` (configuration not stated): 193 to 194 °C; for `COc1cc(OCCCN(C)Cc2ccc(OC)c(OC)c2)ccc1NC(=O)c1cccc2c(=O)c3cccc(C)c3[nH]c12`: 156 to 157 °C; for `Cc1nc(N2N=C(c3ccc([N+](=O)[O-])cc3)c3cc4c(cc3CC2C)OCO4)cs1` (configuration not stated): 178 to 190 °C.
The same measure for `O=C(Nc1cccc(-c2ccnc3c(C(=O)c4cccs4)cnn23)c1)OCCCN1CCS(=O)(=O)CC1`: 148 to 159 °C; for `COC(=O)[C@H]1N[C@@H](c2cccnc2)[C@@H]([N+](=O)[O-])[C@@H]1[C@@H](OCc1ccccc1)C(C)C`: 70 to 71 °C.
The same measure for `O=C(NCCc1c[nH]cn1)c1[nH]c2ccc(Cl)cc2c1S(=O)(=O)c1ccccc1`: 220 to 222 °C.
The compound `CN1C(=O)CN(c2ccccc2)NC1=O` returned a melting point of 207 to 213 °C.
In the case of `Nc1ncnc2c1ncn2Cc1nc2cccc(Cl)c2c(=O)n1-c1ccccc1F`, the melting point was found to be 296 °C.
Turning to `CSC(CC(=O)c1cc(Cl)c(C)c(Cl)c1)C(=O)O` (configuration not stated), the melting point was in the range of 158 to 160 °C.
In the case of `CC(C)CNC(=O)C(C)(C)N=NC(C)(C)C(=O)NCC(C)C`, the melting point is 100 °C.
Then `COC(=O)/C(=N/O)c1cccc([N+](=O)[O-])c1`, with 140 °C; and `Cc1ccc(C(=O)c2cnn3c(-c4cccc(N(C)C(=O)C5CC5)c4)ccnc23)cc1`, with 189 to 190 °C.
On to `O=C1NC(=O)c2c1c(-c1ccccc1Cl)cc1oc3cc(OS(=O)(=O)C(F)(F)F)c(O)cc3c21`, for which the melting point fell in the range of 237 to 240 °C.
Then `Cc1coc2c(C(=O)c3cccs3)cc(C(C)(C)C)c(O)c12`, with 145 °C; and `FC(F)(F)c1ccc2c(c1)N=Cc1ccccc1O2`, with 86 to 88 °C.
The same measure for `O=C1Cc2ccccc2Sc2cc(Cl)c(F)cc21`: 125 to 126 °C.
Then `COCCN1CCc2ccc(Nc3ncc(Cl)c(Nc4ccccc4C(=O)NC(C)C)n3)cc2CC1`, with 186 to 189 °C.
Take `COC(=O)C1=C(C)Nc2c(c(C)nn2C)C1c1cccc([N+](=O)[O-])c1` (configuration not stated): the melting point is 163 to 166 °C.
In turn, `CCCCCC(=O)N1C(=O)CC[C@H]1C(=O)O` had a melting point of 85 to 90 °C.
Consider `COc1ccc(C(=O)C#CCO)cc1`, for which the melting point lay in the range of 84 to 85 °C.
Then `CC(C)c1nc(C(C)C)c(CSc2c(F)c(F)cc(F)c2F)c(-c2ccc(F)cc2)c1CO`, with 109 to 110 °C; and `N#Cc1cccc(C2=NNCCC2n2cc(Cl)cn2)c1` (configuration not stated), with 171 °C.
Regarding `C=C(C)Cc1c(C)c2c(c(C)c1O)CCN2C=O`, the melting point fell in the range of 132 to 134 °C.
Then `O=C1c2ccccc2C(O)N1CCN1CCC(Cc2c[nH]c3ccc(F)cc23)CC1` (racemic), with 183 °C.
`CCNCCC1CCc2cc(OCc3ccc(-c4ccccc4)cc3)ccc2C1` (configuration not stated) displayed a melting point of 83 to 85 °C.
Then `O=S(=O)(Nc1nc2ccccc2nc1Nc1cccc2ccccc12)c1ccc(Cl)cc1`, with 262 to 265 °C; and `CC(C)(C)OC(=O)C(Nc1ccccc1)c1cccc(Br)c1` (racemic), with 90 °C; and `CCc1nnc(CCCOc2c(C)cc(N)c(C=NO)c2C)s1`, with 158 to 160 °C.
Take `O=c1c2[nH]cnc2n(CC2CCCCC2)c(=O)n1CC1CC1`: the melting point was 181 °C.
`N#Cc1cccc(C(=O)Nc2cccc(-n3nc(C(F)(F)F)cc3C(F)(F)F)c2)c1` registered a melting point of 160 to 161 °C.
The same measure for `CCC(=O)N(C(=O)CC)c1c(C#N)cnn1-c1ccc(Cl)c(Cl)c1Cl`: 133 to 134 °C.
The same measure for `Cc1ccc2c(O)c3c(=O)[nH][nH]c(=O)c3nc2c1`: more than 395 °C; for `CCC(CC)c1ccc(Cl)c2nc3n(c12)CCCCN3c1ccc(N(C)C)cc1OC(F)(F)F`: 158 to 159 °C.
Then `COc1cc(C(C)C)c2c(c1)S(=O)(=O)N(COc1cc(C)oc(=O)c1Cl)C2=O`, with 182 to 184 °C.
`C#CCN(Cc1ccc2nc[nH]c(=O)c2c1)c1ccc(C(=O)NCc2cccc([N+](=O)[O-])c2)cc1`: the melting point was in the range of 93 to 96 °C.
Then `CN(C(=O)OC(C)(C)C)c1cnc(-c2ccc(Cl)nc2)s1`, with 167 to 170 °C; and `COc1ccc2[nH]c(SCc3nccc(N4CCCC4)n3)nc2c1`, with 199 to 202 °C.
The same measure for `COc1ccc(S(=O)(=O)N2C(=O)C(O)(c3ccccc3OC)c3cc(Cl)c(C)cc32)c(OC)c1` (configuration not stated): 207 to 208 °C; for `O=C(NC(=O)c1c(Cl)cccc1Cl)Nc1ccc(Sc2ccc(Cl)cc2)nc1`: 160 to 162 °C.
Then `O=C(O)c1ccc(Br)c(CN2CCC(c3cn(Cc4ccncc4)c4ccccc34)CC2)c1`, with 167 to 168 °C; and `CCOC(=O)C1(O)C(=O)N2CCOc3cc(Cl)cc1c32` (configuration not stated), with 186 to 187 °C.
Take `COc1ccc(CCc2nnc(-c3ccc4[nH]nnc4c3)o2)cc1C(F)(F)F`: the melting point lay within 154 to 155 °C.
Then `CC(C)n1nc(-c2sc(NC(=O)c3ccc(I)cc3)nc2-c2ccccc2)ccc1=O`, with 253 to 254 °C; and `Oc1ccc(CNc2ncncc2Cl)cc1`, with 190 to 191 °C.
Regarding `COc1cccc(CNC(=O)c2cc3c(=O)n(CCOc4ccc(Br)cc4)c(=O)n(C)c3s2)c1`, the melting point lay in the range of 165 to 167 °C.
